Data from US20140113898A1, “BISARYLSULFONE AND DIALKYLARYLSULFONE COMPOUNDS AS CALCIUM CHANNEL BLOCKERS” (Zalicus Pharmaceuticals Ltd., priority 2010, published 2014).
Like-named read-outs stand apart in the source and are kept apart here.

Biological target: T1, CaV2.2 (Homo sapiens, UniProt Q00975)
T1 construct: expressed in transfected cells; host or cells: unnamed doxycycline-inducible cell line
Test: High-throughput CaV2.2/Kir2.3 FLIPR fluorescent assay
Type: cell-based
Settings: Fluo-4 FLIPR, closed or inactivated state not stated, read-out: FLIPR data CaV2.2
Experimental: Cells were plated in 384-well, clear-bottom, black-walled, poly-D-lysine coated plates (Becton Dickinson, Franklin Lake, N.J.) 2 days prior to use in the FLIPR assay. 100 μL of cells (1.4×10^6 cell/mL) containing doxycyline (Sigma-Aldrich, 1.5 μg/mL; to induce channel expression) were added to each well using a Multidrop (Thermo Scientific, Waltham, Mass.) and were maintained in 5% CO2 incubator at 37° C. On the morning of the assay, cells were transferred to a 5% CO2 incubator at 29° C.
Cells were washed with a wash buffer containing (in mM): 118 NaCl, 18.4 HEPES, 11.7 D-glucose, 2 CaCl2, 0.5 MgSO4, 4.7 KCl, 1.2 KH2PO4, pH adjusted to 7.2 with NaOH. 4.4 μM of the fluorescent indicator dye, Fluo-4 (Invitrogen), prepared in pluronic acid (Sigma-Aldrich), was loaded into the wells and incubated for 45 minutes at 29° C. in 5% CO2. Cells were then rinsed with either a 2 mM KCl closed-state buffer (in mM: 138.5 NaCl, 10 HEPES, 10 D-glucose, 1 CaCl2, and 2 KCl, with the pH adjusted to 7.4 with NaOH) when performing the closed-state assay or 12.5 mM KCl inactivated-state buffer (in mM: 128 NaCl, 10 HEPES, 10 D-glucose, 1 CaCl2, and 12.5 mM KCl, with the pH adjusted to 7.4 with NaOH) when performing the inactivated-state assay.
Calcium entry was evoked with an addition of 130 mM KCl stimulation buffer (in mM: 10.5 NaCl, 10 HEPES, 10 D-glucose, 1 CaCl2, and 130 KCl, with the pH adjusted to 7.4 with NaOH) for both the closed-state or inactivated-state assay. A change in the Fluo-4 fluorescence signal was assessed using FLIPR^TETRA™ instrument (Molecular Devices, Sunnyvale, Calif.) for 3 minutes following the elevation of extracellular KCl using an illumination wavelength of 470-495 nm with emissions recorded at 515-575 nm.
Concentration-dependent response curves were obtained by comparing the fluorescence signal in the presence of compound and fitted with a logistic function (1) to obtain the concentration that inhibited 50% (IC50) of the RLU signal using OriginPro v.7.5 software (OriginLab, Northampton, Mass.).
To assess the quality of the FLIPR assays the Z-factor (2) was used to quantify the suitability of the assay conditions using the following equation: […]
Data are expressed as mean and standard deviation (SD).

T1 sequence (Q00975 whole entry): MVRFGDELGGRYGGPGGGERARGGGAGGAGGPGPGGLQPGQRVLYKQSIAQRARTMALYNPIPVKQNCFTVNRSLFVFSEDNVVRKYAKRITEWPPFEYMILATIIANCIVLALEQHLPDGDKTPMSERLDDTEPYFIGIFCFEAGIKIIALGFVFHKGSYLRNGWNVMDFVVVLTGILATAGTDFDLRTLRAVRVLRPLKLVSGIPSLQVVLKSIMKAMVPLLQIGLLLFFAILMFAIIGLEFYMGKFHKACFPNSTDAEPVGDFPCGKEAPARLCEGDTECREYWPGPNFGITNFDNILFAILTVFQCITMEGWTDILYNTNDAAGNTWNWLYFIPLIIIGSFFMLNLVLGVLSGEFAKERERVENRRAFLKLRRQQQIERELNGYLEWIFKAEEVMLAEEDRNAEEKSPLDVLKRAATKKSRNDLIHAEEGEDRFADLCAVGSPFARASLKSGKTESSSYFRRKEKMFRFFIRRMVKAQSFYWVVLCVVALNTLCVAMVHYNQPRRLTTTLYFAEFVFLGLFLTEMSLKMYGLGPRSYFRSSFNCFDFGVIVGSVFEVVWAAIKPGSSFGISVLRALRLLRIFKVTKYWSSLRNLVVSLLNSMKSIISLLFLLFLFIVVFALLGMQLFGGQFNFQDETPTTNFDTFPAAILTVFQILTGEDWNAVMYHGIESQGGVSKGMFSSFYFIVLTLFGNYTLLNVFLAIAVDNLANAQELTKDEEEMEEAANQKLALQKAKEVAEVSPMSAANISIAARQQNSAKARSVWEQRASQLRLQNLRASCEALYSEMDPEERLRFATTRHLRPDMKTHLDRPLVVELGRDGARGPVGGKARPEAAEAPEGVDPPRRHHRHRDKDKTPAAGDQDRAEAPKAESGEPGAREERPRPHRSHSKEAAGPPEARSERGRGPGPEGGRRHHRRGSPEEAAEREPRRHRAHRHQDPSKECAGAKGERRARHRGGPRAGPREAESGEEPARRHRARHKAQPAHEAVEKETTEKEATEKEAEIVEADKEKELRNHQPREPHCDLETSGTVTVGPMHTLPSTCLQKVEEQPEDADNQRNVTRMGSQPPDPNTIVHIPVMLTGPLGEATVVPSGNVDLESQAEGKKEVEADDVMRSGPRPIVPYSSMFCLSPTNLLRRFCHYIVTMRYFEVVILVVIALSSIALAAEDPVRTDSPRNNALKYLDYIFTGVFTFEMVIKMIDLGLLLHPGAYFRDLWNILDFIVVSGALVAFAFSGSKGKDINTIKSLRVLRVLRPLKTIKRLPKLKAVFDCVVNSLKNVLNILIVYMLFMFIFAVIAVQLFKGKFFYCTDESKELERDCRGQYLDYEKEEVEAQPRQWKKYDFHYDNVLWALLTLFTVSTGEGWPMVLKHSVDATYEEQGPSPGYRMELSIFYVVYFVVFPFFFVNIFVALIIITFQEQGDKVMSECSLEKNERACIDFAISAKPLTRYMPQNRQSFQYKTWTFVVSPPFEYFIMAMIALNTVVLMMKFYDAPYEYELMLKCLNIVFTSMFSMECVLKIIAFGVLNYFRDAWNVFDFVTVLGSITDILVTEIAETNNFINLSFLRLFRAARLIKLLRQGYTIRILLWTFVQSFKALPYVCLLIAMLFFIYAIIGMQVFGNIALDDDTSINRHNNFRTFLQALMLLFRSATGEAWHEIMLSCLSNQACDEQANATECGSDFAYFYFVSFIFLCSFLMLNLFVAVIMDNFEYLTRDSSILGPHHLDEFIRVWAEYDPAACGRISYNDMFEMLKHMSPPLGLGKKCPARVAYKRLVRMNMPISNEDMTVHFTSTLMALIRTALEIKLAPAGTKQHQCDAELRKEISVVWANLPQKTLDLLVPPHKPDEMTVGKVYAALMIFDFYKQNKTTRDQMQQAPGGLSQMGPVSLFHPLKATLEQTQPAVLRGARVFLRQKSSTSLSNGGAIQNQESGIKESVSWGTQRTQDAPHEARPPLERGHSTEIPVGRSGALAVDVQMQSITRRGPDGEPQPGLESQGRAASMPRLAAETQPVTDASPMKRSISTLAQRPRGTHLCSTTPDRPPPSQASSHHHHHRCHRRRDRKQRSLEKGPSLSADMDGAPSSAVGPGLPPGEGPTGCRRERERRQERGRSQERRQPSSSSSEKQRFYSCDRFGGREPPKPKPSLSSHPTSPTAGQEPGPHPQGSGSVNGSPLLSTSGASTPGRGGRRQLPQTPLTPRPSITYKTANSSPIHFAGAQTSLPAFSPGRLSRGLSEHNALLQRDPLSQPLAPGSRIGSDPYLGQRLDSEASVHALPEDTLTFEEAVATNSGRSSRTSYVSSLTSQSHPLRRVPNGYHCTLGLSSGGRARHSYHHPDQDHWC
T1 sequence (P54284 whole entry partner): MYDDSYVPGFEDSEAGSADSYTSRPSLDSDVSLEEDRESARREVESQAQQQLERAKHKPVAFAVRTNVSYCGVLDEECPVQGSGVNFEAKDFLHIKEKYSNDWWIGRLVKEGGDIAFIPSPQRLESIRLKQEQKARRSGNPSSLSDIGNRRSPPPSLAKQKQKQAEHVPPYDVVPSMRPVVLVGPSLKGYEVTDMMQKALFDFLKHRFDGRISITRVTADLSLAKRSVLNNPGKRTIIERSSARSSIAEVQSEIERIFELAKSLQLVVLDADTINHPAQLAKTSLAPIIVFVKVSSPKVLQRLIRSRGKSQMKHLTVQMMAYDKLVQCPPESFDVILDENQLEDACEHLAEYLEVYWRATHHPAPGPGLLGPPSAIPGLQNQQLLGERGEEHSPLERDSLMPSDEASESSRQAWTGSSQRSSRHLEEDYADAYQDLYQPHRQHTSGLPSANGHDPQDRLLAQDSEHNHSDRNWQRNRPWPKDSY
T1 sequence (P54289 25-946 partner limits assumed): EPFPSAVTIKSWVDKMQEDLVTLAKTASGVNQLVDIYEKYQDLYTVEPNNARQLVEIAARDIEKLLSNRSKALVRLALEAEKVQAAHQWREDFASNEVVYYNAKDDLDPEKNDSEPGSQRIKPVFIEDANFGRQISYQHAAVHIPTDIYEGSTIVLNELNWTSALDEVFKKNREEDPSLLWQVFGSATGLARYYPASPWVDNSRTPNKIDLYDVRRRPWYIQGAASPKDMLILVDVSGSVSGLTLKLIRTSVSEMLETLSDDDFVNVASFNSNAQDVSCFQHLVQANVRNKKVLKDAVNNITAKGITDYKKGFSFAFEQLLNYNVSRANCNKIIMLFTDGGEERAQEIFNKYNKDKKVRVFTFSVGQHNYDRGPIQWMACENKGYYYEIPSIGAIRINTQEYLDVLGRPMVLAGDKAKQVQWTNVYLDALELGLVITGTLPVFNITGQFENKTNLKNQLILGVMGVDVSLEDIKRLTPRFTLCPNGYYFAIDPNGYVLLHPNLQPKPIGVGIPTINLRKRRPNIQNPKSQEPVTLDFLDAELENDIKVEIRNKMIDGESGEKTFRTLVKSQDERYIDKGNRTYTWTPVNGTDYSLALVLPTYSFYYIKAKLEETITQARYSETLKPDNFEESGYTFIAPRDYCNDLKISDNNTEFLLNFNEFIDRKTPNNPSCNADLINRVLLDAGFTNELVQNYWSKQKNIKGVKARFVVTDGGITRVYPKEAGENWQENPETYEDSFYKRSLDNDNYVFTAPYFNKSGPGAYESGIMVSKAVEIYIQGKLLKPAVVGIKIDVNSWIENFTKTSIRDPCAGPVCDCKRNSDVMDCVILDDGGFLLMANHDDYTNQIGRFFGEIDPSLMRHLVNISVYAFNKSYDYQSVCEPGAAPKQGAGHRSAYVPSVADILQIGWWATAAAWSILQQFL
T1 sequence (P54289 947-1103 partner limits assumed): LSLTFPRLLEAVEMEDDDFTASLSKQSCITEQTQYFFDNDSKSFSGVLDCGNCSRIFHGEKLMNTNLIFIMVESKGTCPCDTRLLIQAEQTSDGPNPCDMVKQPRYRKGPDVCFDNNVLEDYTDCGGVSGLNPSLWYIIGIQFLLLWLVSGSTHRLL

For `CC(C)(CC(=O)NCCC(F)(F)F)S(=O)(=O)c1cccc(C(F)(F)F)c1` [Compound 151, 3-methyl-3-((3-(trifluoromethyl)phenyl)sulfonyl)-N-(3,3,3-trifluoropropyl)butanamide], the IC50 (Table 5) was 8.23 µM.
Work on `CC(C)(CNC(=O)c1ccc(F)cc1Cl)S(=O)(=O)c1cccc(C(F)(F)F)c1` [Compound 159, 2-chloro-4-fluoro-N-(2-methyl-2-((3-(trifluoromethyl)phenyl)sulfonyl)propyl)benzamide] yielded an IC50 (Table 5) of 1.32 µM.
With `CC1(C(=O)NCCC(C)(C)S(=O)(=O)c2cccc(C(F)(F)F)c2)CCCCN1` (stereo not drawn) [Compound 222, 2-methyl-N-(3-methyl-3-((3-(trifluoromethyl)phenyl)sulfonyl)butyl)piperidine-2-carboxamide] the IC50 (Table 5) was 3.77 µM.
`O=C(NCc1ccc(S(=O)(=O)c2cccc(C(F)(F)F)c2)cn1)[C@H]1CCCN1` [Compound 108, (R)-N-((5-((3-(trifluoromethyl)phenyl)sulfonyl)pyridin-2-yl)methyl)pyrrolidine-2-carboxamide] showed an IC50 (Table 4) of 2.6 µM.
Work on `CC(C)(CCNC(=O)c1cn2cc(C(F)(F)F)ccc2n1)S(=O)(=O)c1cc(F)cc(C(F)(F)F)c1` [Compound 214, N-(3-((3-fluoro-5-(trifluoromethyl)phenyl)sulfonyl)-3-methylbutyl)-6-(trifluoromethyl)imidazo[1,2-a]pyridine-2-carboxamide] yielded an IC50 (Table 5) of 1.31 µM.
For `CC(C)(CCNC(=O)CC1CCNCC1)S(=O)(=O)c1cccc(C(F)(F)F)c1` [Compound 206, N-(3-methyl-3-((3-(trifluoromethyl)phenyl)sulfonyl)butyl)-2-(piperidin-4-yl)acetamide], the IC50 (Table 5) was 10 µM.
For `CC(C)(CCNC(=O)c1ccc(C(F)(F)F)cc1S(C)(=O)=O)S(=O)(=O)c1cc(F)cc(C(F)(F)F)c1` [Compound 213, N-(3-((3-fluoro-5-(trifluoromethyl)phenyl)sulfonyl)-3-methylbutyl)-2-(methylsulfonyl)-4-(trifluoromethyl)benzamide], the IC50 (Table 5) was 1.12 µM.
Work on `O=C(NCc1ccccc1S(=O)(=O)c1cccc(C(F)(F)F)c1)[C@@H]1CCCN1` [Compound 76, (S)-N-(2-((3-(trifluoromethyl)phenyl)sulfonyl)benzyl)pyrrolidine-2-carboxamide] yielded an IC50 (Table 4) of 5.54 µM.
`CC(C)(CCNC(=O)C1(N)CC1)S(=O)(=O)c1cccc(C(F)(F)F)c1` [Compound 202, 1-amino-N-(3-methyl-3-((3-(trifluoromethyl)phenyl)sulfonyl)butyl)cyclopropanecarboxamide] was tested, and the IC50 (Table 5) was 10 µM.
Compound `CC(C)(CNC(=O)c1cnccc1C(F)(F)F)S(=O)(=O)c1cccc(C(F)(F)F)c1` [Compound 174, N-(2-methyl-2-((3-(trifluoromethyl)phenyl)sulfonyl)propyl)-4-(trifluoromethyl)nicotinamide] has an IC50 (Table 5) of 4.36 µM.
With `O=C(NCc1cc(S(=O)(=O)c2cccc(C(F)(F)F)c2)ccn1)c1ccnc(C(F)(F)F)n1` [Compound 113, 2-(trifluoromethyl)-N-((4-((3-(trifluoromethyl)phenyl)sulfonyl)pyridin-2-yl)methyl)pyrimidine-4-carboxamide] the IC50 (Table 4) was 1.39 µM.
`CS(=O)(=O)c1nc(C(F)(F)F)ccc1C(=O)NCc1ccccc1S(=O)(=O)c1cccc(C(F)(F)F)c1` [Compound 40] showed an IC50 (Table 4) of 7 µM.
`O=C(NCc1ccc(S(=O)(=O)c2cccc(C(F)(F)F)c2)cn1)c1ccnc(C(F)(F)F)c1` [Compound 102, 2-(trifluoromethyl)-N-((5-((3-(trifluoromethyl)phenyl)sulfonyl)pyridin-2-yl)methyl)isonicotinamide] was tested, and the IC50 (Table 4) was 1.41 µM.
`CC(C)(CCNC(=O)Cc1cccc(S(C)(=O)=O)c1)S(=O)(=O)c1cccc(C(F)(F)F)c1` [Compound 193, N-(3-methyl-3-((3-(trifluoromethyl)phenyl)sulfonyl)butyl)-2-(3-(methylsulfonyl)phenyl)acetamide] gave an IC50 (Table 5) of 1.68 µM.
In the case of `O=C(NCc1ccccc1S(=O)(=O)c1cccc(C(F)(F)F)c1)[C@@H]1C[C@@H](F)CN1` [Compound 69, (2S,4R)-4-fluoro-N-(2-((3-(trifluoromethyl)phenyl)sulfonyl)benzyl)pyrrolidine-2-carboxamide], the IC50 (Table 4) is reported as 9.14 µM.
Compound `CS(=O)(=O)c1nc(C(F)(F)F)ccc1C(=O)NCc1cc(S(=O)(=O)c2cccc(C(F)(F)F)c2)ccn1` [Compound 110, 2-(methylsulfonyl)-6-(trifluoromethyl)-N-((4-((3-(trifluoromethyl)phenyl)sulfonyl)pyridin-2-yl)methyl)nicotinamide] has an IC50 (Table 4) of 2.21 µM.
`NC1(C(=O)NCc2ccc(S(=O)(=O)c3cccc(C(F)(F)F)c3)cc2)CCS(=O)(=O)CC1` [Compound 61, 4-amino-N-(4-((3-(trifluoromethyl)phenyl)sulfonyl)benzyl)tetrahydro-2H-thiopyran-4-carboxamide 1,1-dioxide] was tested, and the IC50 (Table 4) was 4.68 µM.
For `COc1cc(CCNC(=O)CC(C)(C)S(=O)(=O)c2cccc(C(F)(F)F)c2)ccc1O` [Compound 153, N-(4-hydroxy-3-methoxyphenetnyl)-3-methyl-3-((3-(trifluoromethyl)phenyl)sulfonyl)butanamide], the IC50 (Table 5) was 1.22 µM.
`O=C(NCc1ccccc1S(=O)(=O)c1cccc(C(F)(F)F)c1)c1ccnc(C(F)(F)F)c1` [Compound 50, 2-(trifluoromethyl)-N-(2-((3-(trifluoromethyl)phenyl)sulfonyl)benzyl)isonicotinamide] showed an IC50 (Table 4) of 1.21 µM.
For `CNC(C)(C)C(=O)NCCC(C)(C)S(=O)(=O)c1cccc(C(F)(F)F)c1` [Compound 204, 2-methyl-N-(3-methyl-3-((3-(trifluoromethyl)phenyl)sulfonyl)butyl)-2-(methylamino)propanamide], the IC50 (Table 5) was 10.2 µM.
For `CC(C)(CNC(=O)c1ccc(F)cc1)S(=O)(=O)c1cccc(C(F)(F)F)c1` [Compound 157, 4-fluoro-N-(2-methyl-2-((3-(trifluoromethyl)phenyl)sulfonyl)propyl)benzamide], the IC50 (Table 5) was 5.37 µM.
`CC(C)S(=O)(=O)c1cccnc1C(=O)NCCC(C)(C)S(=O)(=O)c1cccc(C(F)(F)F)c1` [Compound 211, 3-(isopropylsulfonyl)-N-(3-methyl-3-((3-(trifluoromethyl)phenyl)sulfonyl)butyl)picolinamide] gave an IC50 (Table 5) of 1.1 µM.
`CC(C)(CCNC(=O)c1cc(F)ccc1S(C)(=O)=O)S(=O)(=O)c1cccc(C(F)(F)F)c1` [Compound 194, 5-fluoro-N-(3-methyl-3-((3-(trifluoromethyl)phenyl)sulfonyl)butyl)-2-(methylsulfonyl)benzamide] gave an IC50 (Table 5) of 1.53 µM.
Work on `CC(C)(CNC(=O)c1cnc(C(F)(F)F)nc1)S(=O)(=O)c1cccc(C(F)(F)F)c1` [Compound 164, N-(2-methyl-2-((3-(trifluoromethyl)phenyl)sulfonyl)propyl)-2-(trifluoromethyl)pyrimidine-5-carboxamide] yielded an IC50 (Table 5) of 4.66 µM.
Work on `O=C(NCc1ccccc1S(=O)(=O)c1cccc(C(F)(F)F)c1)c1cnc(C(F)(F)F)nc1` [Compound 45, 2-(trifluoromethyl)-N-(2-((3-(trifluoromethyl)phenyl)sulfonyl)benzyl)pyrimidine-5-carboxamide] yielded an IC50 (Table 4) of 1.11 µM.
Compound `COc1cc(OC)cc(C(O)CNC(=O)C(C)(C)S(=O)(=O)c2cccc(C(F)(F)F)c2)c1` (stereo not drawn) [Compound 142, N-(2-(3,5-dimethoxyphenyl)-2-hydroxyethyl)-2-methyl-2-((3-(trifluoromethyl)phenyl)sulfonyl)propanamide] has an IC50 (Table 5) of 0.44 µM.
For `O=C(NCc1ccccc1S(=O)(=O)c1cccc(C(F)(F)F)c1)[C@H]1CCCN1` [Compound 78, (R)-N-(2-((3-(trifluoromethyl)phenyl)sulfonyl)benzyl)pyrrolidine-2-carboxamide], the IC50 (Table 4) was 3.75 µM.
`O=C(NCc1ccc(S(=O)(=O)c2cccc(C(F)(F)F)c2)cc1)C1CCCCN1` (stereo not drawn) [Compound 59, N-(4-((3-(trifluoromethyl)phenyl)sulfonyl)benzyl)piperidine-2-carboxamide] showed an IC50 (Table 4) of 1 µM.
`CC(C)(CCNC(=O)[C@@H]1CCCN1)S(=O)(=O)c1cccc(C(F)(F)F)c1` [Compound 219, (S)-N-(3-methyl-3-((3-(trifluoromethyl)phenyl)sulfonyl)butyl)pyrrolidine-2-carboxamide] showed an IC50 (Table 5) of 3.23 µM.
`O=C(NCc1ccc(S(=O)(=O)c2cccc(C(F)(F)F)c2)cc1)[C@@H]1CCCN1` [Compound 73, (S)-N-(4-((3-(trifluoromethyl)phenyl)sulfonyl)benzyl)pyrrolidine-2-carboxamide] showed an IC50 (Table 4) of 1.92 µM.
